Measured values as given in ChEMBL document CHEMBL4033769, “Simple Tetrahydroisoquinolines Are Potent and Selective Kappa Opioid Receptor Antagonists” (ACS Med Chem Lett, 2017).
The source made the active and inactive calls. No cut-off for these calls is given here.

Experiments:
[1] = target: Delta-type opioid receptor (Homo sapiens) (UniProt P41143); test: Agonist activity at human delta-opioid receptor expressed in CHO cell membranes assessed as induction of [35S]GTPgammaS binding at 10 uM after 60 mins by scintillation counting method; assay type: functional
Delta-type opioid receptor (Homo sapiens), sequence (P41143 whole entry): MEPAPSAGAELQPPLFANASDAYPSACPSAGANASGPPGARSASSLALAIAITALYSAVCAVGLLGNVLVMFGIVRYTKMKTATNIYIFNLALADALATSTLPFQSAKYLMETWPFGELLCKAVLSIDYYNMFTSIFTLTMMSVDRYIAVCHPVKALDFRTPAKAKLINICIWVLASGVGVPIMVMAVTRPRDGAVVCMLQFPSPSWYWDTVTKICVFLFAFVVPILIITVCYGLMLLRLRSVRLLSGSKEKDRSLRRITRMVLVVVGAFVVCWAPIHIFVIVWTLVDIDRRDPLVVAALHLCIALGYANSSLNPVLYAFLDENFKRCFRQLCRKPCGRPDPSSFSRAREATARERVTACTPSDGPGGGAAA

[2] = target: Mu-type opioid receptor (Homo sapiens) (UniProt P35372); test: Agonist activity at human mu-opioid receptor expressed in CHO cell membranes assessed as induction of [35S]GTPgammaS binding at 10 uM after 60 mins by scintillation counting method; assay type: functional
Mu-type opioid receptor (Homo sapiens), sequence (P35372 whole entry): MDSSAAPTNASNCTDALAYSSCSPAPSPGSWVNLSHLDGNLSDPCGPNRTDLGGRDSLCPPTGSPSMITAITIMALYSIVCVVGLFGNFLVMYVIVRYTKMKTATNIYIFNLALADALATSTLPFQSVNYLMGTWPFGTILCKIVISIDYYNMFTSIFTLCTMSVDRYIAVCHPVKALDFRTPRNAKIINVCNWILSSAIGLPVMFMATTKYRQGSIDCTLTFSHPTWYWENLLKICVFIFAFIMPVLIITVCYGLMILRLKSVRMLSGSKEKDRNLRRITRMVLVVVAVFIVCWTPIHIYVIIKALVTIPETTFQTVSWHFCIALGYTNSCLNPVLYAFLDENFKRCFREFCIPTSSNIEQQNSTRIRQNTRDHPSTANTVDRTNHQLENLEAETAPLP

[3] = target: Kappa-type opioid receptor (Homo sapiens) (UniProt P41145); test: Agonist activity at human kappa-opioid receptor expressed in CHO cell membranes assessed as induction of [35S]GTPgammaS binding at 10 uM after 60 mins by scintillation counting method; assay type: functional
Kappa-type opioid receptor (Homo sapiens), sequence (P41145 whole entry): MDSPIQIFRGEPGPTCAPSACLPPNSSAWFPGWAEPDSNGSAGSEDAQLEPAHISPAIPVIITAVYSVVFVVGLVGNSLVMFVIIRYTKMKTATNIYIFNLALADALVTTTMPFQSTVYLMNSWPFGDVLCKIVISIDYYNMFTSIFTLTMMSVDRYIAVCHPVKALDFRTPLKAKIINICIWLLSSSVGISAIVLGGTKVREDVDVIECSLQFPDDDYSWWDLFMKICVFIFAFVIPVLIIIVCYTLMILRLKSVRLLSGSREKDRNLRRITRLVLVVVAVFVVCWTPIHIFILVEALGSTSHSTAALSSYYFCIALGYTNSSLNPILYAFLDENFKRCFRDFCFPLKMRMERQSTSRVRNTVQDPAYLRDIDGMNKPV

[4] = target: Delta-type opioid receptor (Homo sapiens) (UniProt P41143)
Description: Antagonist activity at human delta-opioid receptor expressed in CHO cell membranes assessed as inhibition of DPDPE agonist-induced [35S]GTPgammaS binding after 60 mins by scintillation counting method

| SMILES | Activity [1] | Activity [2] | Activity [3] | Ke [4] [nM] |
| --- | --- | --- | --- | --- |
| CC(C)[C@@H](CN1CCCCC1)NC(=O)[C@H]1Cc2ccc(O)cc2CN1 | inactive | inactive | inactive |  |
| CC(C)[C@@H](CC1CCCCC1)NC(=O)[C@H]1Cc2ccc(O)cc2CN1 | inactive | inactive | inactive | 640 |
